Test: xn = mol fraction of the nth substance listed

Brc1ccccc1 + CCCCCO
293.15 K, 101.33 kPa
Settings	viscosity [mPa·s]
x2 = 0.0631	1.14
x2 = 0.1715	1.212
x2 = 0.2092	1.252
x2 = 0.2807	1.335
x2 = 0.3259	1.398
x2 = 0.3831	1.512
x2 = 0.4182	1.57
x2 = 0.4909	1.716
x2 = 0.5969	2.011
x2 = 0.6886	2.346
x2 = 0.7544	2.636
x2 = 0.8796	3.294

C1=C[C@H]2[C@@H](C1)[C@H]1C=C[C@@H]2C1 + CCCCCO
viscosity [mPa·s], 101.2 kPa
Settings	x1 = 0.1058	x1 = 0.1953	x1 = 0.3	x1 = 0.4005	x1 = 0.498	x1 = 0.5999	x1 = 0.7018	x1 = 0.8009	x1 = 0.8999
293.15 K	3.719	3.558	3.422	3.307	3.279	3.283	3.368	3.522	3.876
303.15 K	2.86	2.734	2.63	2.569	2.547	2.575	2.648	2.784	3.037
313.15 K	2.201	2.126	2.062	2.032	2.035	2.075	2.14	2.259	2.466

Ic1ccccc1 + CCCCCO
293.15 K, 101.33 kPa
Settings	viscosity [mPa·s]
x2 = 0.1	1.665
x2 = 0.2	1.694
x2 = 0.25	1.709
x2 = 0.3834	1.864
x2 = 0.4289	1.94
x2 = 0.5101	2.098
x2 = 0.7761	2.915
x2 = 0.8055	3.043
x2 = 0.8184	3.1
x2 = 0.8554	3.273
x2 = 0.9419	3.7
x2 = 0.975	3.867

C#Cc1ccccc1 + CCCCCOC(C)=O
Settings	viscosity [mPa·s]
298.15 K, 101 kPa, x1 = 0.0691	0.791

C1COCCO1 + CCCCO
298.15 K, 101 kPa
Settings	viscosity [mPa·s]
x1 = 0.0346	2.264
x1 = 0.127	1.806
x1 = 0.5	1.272
x1 = 0.5917	1.099
x1 = 0.6726	1.074
x1 = 0.7123	1.07
x1 = 0.768	1.073
x1 = 0.8002	1.078
x1 = 0.8852	1.091
x1 = 0.9472	1.126

CC(=O)OCC(COC(C)=O)OC(C)=O + CCCCO
viscosity [mPa·s], 101.33 kPa
Settings	x1 = 0.1	x1 = 0.2	x1 = 0.3	x1 = 0.4	x1 = 0.5	x1 = 0.6	x1 = 0.7	x1 = 0.8	x1 = 0.9
298 K	2.4	2.7	3.12	3.71	4.5	5.57	6.99	9.02	11.93
303 K	2.11	2.34	2.69	3.17	3.82	4.65	5.79	7.34	9.49
308 K	1.87	2.06	2.36	2.75	3.27	3.96	4.86	6.07	7.72
313 K	1.67	1.83	2.07	2.4	2.84	3.41	4.15	5.1	6.39

CCCC#N + CCCCO
viscosity [mPa·s], 101.33 kPa
Settings	x2 = 0.1001	x2 = 0.1981	x2 = 0.2994	x2 = 0.3979	x2 = 0.4953	x2 = 0.5961	x2 = 0.6981	x2 = 0.7984	x2 = 0.8991
298.15 K	0.58	0.623	0.684	0.764	0.869	1.012	1.211	1.482	1.885
308.15 K	0.515	0.547	0.596	0.66	0.741	0.852	1.003	1.208	1.506
318.15 K	0.461	0.487	0.526	0.575	0.64	0.726	0.842	1.002	1.221

Brc1ccccc1 + CCCCOC(C)=O
viscosity [mPa·s], 101 kPa
Settings	298.15 K	308.15 K
x2 = 0.0489	0.919	0.88
x2 = 0.1488	0.737	0.746
x2 = 0.2514	0.615	0.649
x2 = 0.3499	0.54	0.584
x2 = 0.4493	0.495	0.541
x2 = 0.4965	0.482	0.526
x2 = 0.5512	0.474	0.515
x2 = 0.6501	0.474	0.505
x2 = 0.7497	0.496	0.51
x2 = 0.8499	0.542	0.53
x2 = 0.9226	0.595	0.556

CCCCn1cc[n+](C)c1.O=S(=O)([N-]S(=O)(=O)C(F)(F)F)C(F)(F)F + CCCCn1cc[n+](C)c1.F[B-](F)(F)F
Settings	viscosity [mPa·s]
323.15 K, 100 kPa, x1 = 0.751	23.85

CCCCn1cc[n+](C)c1.O=S(=O)([N-]S(=O)(=O)C(F)(F)F)C(F)(F)F + CCCCn1cc[n+](C)c1.F[P-](F)(F)(F)(F)F
Settings	viscosity [mPa·s]
318.15 K, 100 kPa, x1 = 0.25	58.45

C1COCCO1 + CCCO
viscosity [mPa·s]
Settings	298.15 K	303.15 K	308.15 K	313.15 K
101 kPa, x1 = 0.4	1.131	–	–	–
101.3 kPa, x1 = 0.0923	1.609	1.42	1.289	1.179
101.3 kPa, x1 = 0.122	1.499	1.332	1.209	1.1
101.3 kPa, x1 = 0.2236	1.284	1.15	1.057	0.9732
101.3 kPa, x1 = 0.2793	1.223	1.084	0.9926	0.9135
101.3 kPa, x1 = 0.3323	1.158	1.065	0.9698	0.8894
101.3 kPa, x1 = 0.3964	1.106	1.014	0.9229	0.8503
101.3 kPa, x1 = 0.4347	1.057	0.9719	0.8966	0.8243
101.3 kPa, x1 = 0.5294	1.04	0.9553	0.8788	0.8135
101.3 kPa, x1 = 0.5833	1.028	0.949	0.8777	0.8149
101.3 kPa, x1 = 0.6365	1.028	0.9503	0.8792	0.8185
101.3 kPa, x1 = 0.6538	1.033	0.9567	0.8791	0.8196
101.3 kPa, x1 = 0.7379	1.051	0.9745	0.9054	0.8374
101.3 kPa, x1 = 0.8132	1.085	0.9921	0.9184	0.8578
101.3 kPa, x1 = 0.8989	1.117	1.028	0.9533	0.887

C1=C[C@H]2[C@@H](C1)[C@H]1C=C[C@@H]2C1 + CCO
viscosity [mPa·s], 101.2 kPa
Settings	x1 = 0.1001	x1 = 0.1997	x1 = 0.2973	x1 = 0.4003	x1 = 0.501	x1 = 0.6023	x1 = 0.699	x1 = 0.8013	x1 = 0.9002
293.15 K	1.493	1.788	2.076	2.381	2.68	3.001	3.332	3.701	4.073
303.15 K	1.232	1.449	1.657	1.879	2.098	2.339	2.595	2.879	3.161
313.15 K	1.038	1.209	1.369	1.541	1.718	1.911	2.111	2.345	2.579

C1COCCO1 + CCO
viscosity [mPa·s]
Settings	293.15 K	298.15 K	303.15 K	308.15 K
101 kPa, x1 = 0.0584	–	0.992	–	–
101 kPa, x1 = 0.1156	–	0.938	–	–
101 kPa, x1 = 0.1834	–	0.884	–	–
101 kPa, x1 = 0.2678	–	0.86	–	–
101 kPa, x1 = 0.3	–	0.9243	–	–
101 kPa, x1 = 0.3438	–	0.849	–	–
101 kPa, x1 = 0.4473	–	0.863	–	–
101 kPa, x1 = 0.5589	–	0.885	–	–
101 kPa, x1 = 0.689	–	0.933	–	–
101 kPa, x1 = 0.8264	–	1.029	–	–
101 kPa, x2 = 0.1798	–	1.027	0.9544	0.8897
101 kPa, x2 = 0.324	–	0.9634	0.8928	0.8361
101 kPa, x2 = 0.4539	–	0.9317	0.8654	0.8124
101 kPa, x2 = 0.5608	–	0.9336	0.8661	0.8072
101 kPa, x2 = 0.6591	–	0.9547	0.8825	0.8181
101 kPa, x2 = 0.7972	–	1.025	0.9451	0.8639
101 kPa, x2 = 0.8858	–	1.102	1.008	0.919
101 kPa, x2 = 0.9427	–	1.179	1.068	0.9697
101.33 kPa, x1 = 0.0703	1.069	0.96	0.8879	0.8147
101.33 kPa, x1 = 0.1455	0.9889	0.8885	0.8285	0.7595
101.33 kPa, x1 = 0.2259	0.9468	0.8529	0.7902	0.7308
101.33 kPa, x1 = 0.3126	0.9216	0.8387	0.7727	0.7174
101.33 kPa, x1 = 0.4045	0.9225	0.8391	0.7751	0.7182
101.33 kPa, x1 = 0.5051	0.9277	0.8469	0.7819	0.7278
101.33 kPa, x1 = 0.6163	0.9582	0.8803	0.8165	0.7622
101.33 kPa, x1 = 0.7297	1.029	0.9425	0.8647	0.8101
101.33 kPa, x1 = 0.86	1.135	1.044	0.9699	0.8938
101.33 kPa, x2 = 0.2101	–	–	0.984	–
101.33 kPa, x2 = 0.5822	–	–	0.825	–
101.33 kPa, x2 = 0.7056	–	–	0.798	–
101.33 kPa, x2 = 0.9653	–	–	0.927	–
